Laboratory results from BindingDB's records for patent US9682141 (Intellikine LLC, 2017).

Legend:
[1] = biological target: Phosphatidylinositol 4,5-bisphosphate 3-kinase catalytic subunit beta isoform (Homo sapiens, UniProt P42338); assay: PI 3-Kinase HTRF Assay; conditions: 25 °C
Protocol: (§1) Briefly, the assay is a time resolved FRET assay that indirectly measures PIP3 product formed by the activity of a PI3-K. The kinase reaction is performed in a microtitre plate (e.g., a 384 well microtitre plate). The total reaction volume is approximately 20 ul per well. In the first step, each well receives 2 ul of test compound in 20% dimethylsulphoxide resulting in a 2% DMSO final concentration. Next, approximately 14.5 ul of a kinase/PIP2 mixture (diluted in 1x reaction buffer) is added per well for a final concentration of 0.25-0.3 ug/ml kinase and 10 uM PIP2. The plate is sealed and incubated for 15 minutes at room temperature. To start the reaction, 3.5 ul of ATP (diluted in 1x reaction buffer) is added per well for a final concentration of 10 uM ATP. The plate is sealed and incubated for 1 hour at room temperature. The reaction is stopped by adding 5 ul of Stop Solution per well and then 5 ul of Detection Mix is added per well. The plate is sealed, incubated for 1 hour at room temperature, and then read on an appropriate plate reader.

[2] = biological target: Phosphatidylinositol 4,5-bisphosphate 3-kinase catalytic subunit alpha isoform (Homo sapiens, UniProt P42336); assay: PI 3-Kinase HTRF Assay; conditions: 25 °C
Sequence of Phosphatidylinositol 4,5-bisphosphate 3-kinase catalytic subunit alpha isoform (P42336 whole entry, canonical isoform): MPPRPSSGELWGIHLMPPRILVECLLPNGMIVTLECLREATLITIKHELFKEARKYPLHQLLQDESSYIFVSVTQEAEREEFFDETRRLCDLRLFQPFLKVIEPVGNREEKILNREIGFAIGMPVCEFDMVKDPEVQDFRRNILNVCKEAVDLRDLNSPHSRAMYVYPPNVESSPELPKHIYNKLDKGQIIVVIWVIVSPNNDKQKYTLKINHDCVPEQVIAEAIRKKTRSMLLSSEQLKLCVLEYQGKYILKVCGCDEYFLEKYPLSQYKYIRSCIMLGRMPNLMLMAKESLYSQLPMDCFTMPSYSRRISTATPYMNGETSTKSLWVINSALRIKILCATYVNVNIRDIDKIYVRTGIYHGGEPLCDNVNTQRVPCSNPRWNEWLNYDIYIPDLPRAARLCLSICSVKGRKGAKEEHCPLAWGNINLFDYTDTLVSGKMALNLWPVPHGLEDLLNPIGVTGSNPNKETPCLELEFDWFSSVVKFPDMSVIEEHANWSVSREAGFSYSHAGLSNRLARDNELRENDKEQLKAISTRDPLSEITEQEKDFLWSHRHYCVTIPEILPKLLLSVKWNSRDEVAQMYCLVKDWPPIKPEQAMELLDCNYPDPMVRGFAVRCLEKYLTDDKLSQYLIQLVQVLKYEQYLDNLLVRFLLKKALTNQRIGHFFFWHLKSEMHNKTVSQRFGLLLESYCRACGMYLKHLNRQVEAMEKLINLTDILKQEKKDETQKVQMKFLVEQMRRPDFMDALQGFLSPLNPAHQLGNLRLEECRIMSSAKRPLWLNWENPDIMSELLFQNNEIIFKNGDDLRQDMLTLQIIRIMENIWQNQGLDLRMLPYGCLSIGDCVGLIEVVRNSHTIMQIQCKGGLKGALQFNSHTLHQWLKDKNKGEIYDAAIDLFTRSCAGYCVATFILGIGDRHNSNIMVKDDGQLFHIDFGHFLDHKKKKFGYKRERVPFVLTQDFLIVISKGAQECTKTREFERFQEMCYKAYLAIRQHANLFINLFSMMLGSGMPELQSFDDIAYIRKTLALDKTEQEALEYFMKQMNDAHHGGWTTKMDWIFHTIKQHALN
Protocol: as §1

Sequence of Phosphatidylinositol 4,5-bisphosphate 3-kinase catalytic subunit beta isoform (P42338 whole entry, canonical isoform): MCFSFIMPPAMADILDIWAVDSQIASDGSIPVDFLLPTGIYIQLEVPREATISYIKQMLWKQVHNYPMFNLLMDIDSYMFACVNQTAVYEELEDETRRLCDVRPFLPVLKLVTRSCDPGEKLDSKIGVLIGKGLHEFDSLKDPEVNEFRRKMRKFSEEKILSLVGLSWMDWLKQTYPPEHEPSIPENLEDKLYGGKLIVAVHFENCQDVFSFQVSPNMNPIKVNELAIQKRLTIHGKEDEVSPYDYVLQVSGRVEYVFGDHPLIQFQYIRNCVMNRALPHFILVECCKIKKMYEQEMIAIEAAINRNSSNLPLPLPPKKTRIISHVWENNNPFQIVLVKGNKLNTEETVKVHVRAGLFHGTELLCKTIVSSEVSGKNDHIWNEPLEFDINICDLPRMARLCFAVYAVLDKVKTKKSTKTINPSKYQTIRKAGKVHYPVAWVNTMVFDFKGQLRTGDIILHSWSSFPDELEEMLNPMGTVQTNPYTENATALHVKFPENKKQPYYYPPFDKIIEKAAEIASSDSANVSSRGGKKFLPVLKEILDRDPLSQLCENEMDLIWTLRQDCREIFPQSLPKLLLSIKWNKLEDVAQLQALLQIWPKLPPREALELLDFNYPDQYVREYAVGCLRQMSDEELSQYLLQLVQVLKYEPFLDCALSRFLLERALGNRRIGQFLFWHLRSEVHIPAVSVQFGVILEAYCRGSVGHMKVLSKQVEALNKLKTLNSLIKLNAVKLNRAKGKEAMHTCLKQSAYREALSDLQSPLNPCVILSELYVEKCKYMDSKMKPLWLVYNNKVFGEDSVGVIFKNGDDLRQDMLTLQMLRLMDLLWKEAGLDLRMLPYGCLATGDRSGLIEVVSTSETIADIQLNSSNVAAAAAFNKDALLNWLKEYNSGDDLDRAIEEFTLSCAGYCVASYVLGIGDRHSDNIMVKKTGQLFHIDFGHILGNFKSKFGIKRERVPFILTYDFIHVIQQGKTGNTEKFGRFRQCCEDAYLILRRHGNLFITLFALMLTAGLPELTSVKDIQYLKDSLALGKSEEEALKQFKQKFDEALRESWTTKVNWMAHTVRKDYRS

Nc1nc2cc(-c3ccc4ncc(-c5ccncc5)n4c3)ccc2o1 [US9682141, 6]
IC50 [1]: < 10 µM

Nc1nc2cc(-c3ccc4ncn(-c5ccccc5)c4c3)ccc2o1 [US9682141, 11]
IC50 [2]: < 0.1 µM | IC50 [1]: < 10 µM
